This passage reports TD50 results from PubChem BioAssay AID1745844 (Carcinogenic Potency Database (CPDB), 2022).

In this series the test system is rodent lifetime carcinogenesis bioassay, tumor incidence TD50. In words: chronic cancer bioassays in animals – CPDB, compiled studies (AID 1745844).

What is called TD50 is the dose at which the toxic effect under study appears in half of the subjects.

As to `C=C1C(C)(C)[C@@]2(Cl)C(Cl)[C@]1(Cl)C(Cl)(Cl)C2(Cl)Cl` (stereo partly specified), the TD50 runs as follows: (mouse, strain B6AKF1, males, oral dosing, site: any site (literature study), lesion: several types, types named in the paper, dosed 79 weeks, study length 79 weeks) 0.75 mg/kg/day; (mouse, strain B6AKF1, males, oral dosing, site: liver, lesion: hepatoma, dosed 79 weeks, study length 79 weeks) 0.644 mg/kg/day; (mouse, strain B6C3F1, females, oral dosing, site: any site (literature study), lesion: several types, types named in the paper, dosed 79 weeks, study length 79 weeks) 3.37 mg/kg/day; (mouse, strain B6C3F1, females, oral dosing, site: lung, lesion: adenoma, dosed 79 weeks, study length 79 weeks) 10.7 mg/kg/day; (mouse, strain B6C3F1, males, oral dosing, site: all sites, lesion: reticulum-cell sarcoma, dosed 79 weeks, study length 79 weeks) 1.41 mg/kg/day; (mouse, strain B6C3F1, males, oral dosing, site: any site (literature study), lesion: several types, types named in the paper, dosed 79 weeks, study length 79 weeks) 0.75 mg/kg/day. Also, the TD50 was 4 mg/kg/day (mouse, strain B6C3F1, males, oral dosing, site: liver, lesion: hepatoma, dosed 79 weeks, study length 79 weeks) and 8.29 mg/kg/day (mouse, strain B6C3F1, males, oral dosing, site: lung, lesion: adenoma, dosed 79 weeks, study length 79 weeks).

As to `Cc1cc(=O)[nH]c(=S)[nH]1`, the TD50 is 53.4 mg/kg/day (hamster, strain Not specified, females, in drinking water, site: thyroid gland, lesion: several types, types named in the paper, dosed 52 weeks, study length 52 weeks) and 1370 mg/kg/day (mouse, strain C3H/FIB, both sexes, in feed, site: liver, lesion: hepatoma, dosed 51 weeks, study length 78 weeks).

For `CCCC/C=N/N(C)C=O`, the TD50 runs as follows: (mouse, strain Swiss albino, females, by gavage, site: liver, lesion: hepatoma, benign, dosed 52 weeks, study length 144 weeks) 11.8 mg/kg/day; (mouse, strain Swiss albino, females, by gavage, site: lung, lesion: adenocarcinoma, dosed 52 weeks, study length 144 weeks) 9.29 mg/kg/day; (mouse, strain Swiss albino, females, by gavage, site: lung, lesion: adenoma, dosed 52 weeks, study length 144 weeks) 5.64 mg/kg/day; (mouse, strain Swiss albino, females, by gavage, site: lung, lesion: several types, types named in the paper, dosed 52 weeks, study length 144 weeks) 3.12 mg/kg/day; (mouse, strain Swiss albino, males, by gavage, site: liver, lesion: hepatoma, dosed 52 weeks, study length 134 weeks) 33.1 mg/kg/day; (mouse, strain Swiss albino, males, by gavage, site: lung, lesion: adenocarcinoma, dosed 52 weeks, study length 134 weeks) 11 mg/kg/day. Also, the TD50 (mouse, strain Swiss albino, males, by gavage, site: lung, lesion: adenoma, dosed 52 weeks, study length 134 weeks) was 5.52 mg/kg/day; the TD50 (mouse, strain Swiss albino, males, by gavage, site: lung, lesion: several types, types named in the paper, dosed 52 weeks, study length 134 weeks) was 3.79 mg/kg/day; the TD50 (mouse, strain Swiss albino, males, by gavage, site: preputial gland, lesion: several types, types named in the paper, dosed 52 weeks, study length 134 weeks) is 16.2 mg/kg/day; the TD50 (mouse, strain Swiss albino, males, by gavage, site: preputial gland, lesion: squamous-cell carcinoma, dosed 52 weeks, study length 134 weeks) came to 19.8 mg/kg/day; the TD50 (mouse, strain Swiss albino, males, by gavage, site: preputial gland, lesion: squamous-cell papilloma, dosed 52 weeks, study length 134 weeks) came to 106 mg/kg/day.
